Values of other authors, collected in patent US20090325943A1, “VETERINARY PHARMACEUTICAL COMPOSITIONS FOR THE TREATMENT OF PAIN AND INFLAMMATION” (priority 2006, published 2009).

How the values were obtained:
[1] = dog, regardless of the administration route

## COc1cccc(C2(O)CCCCC2CN(C)C)c1 (stereo not shown) [tramadol]
6 animal species
  bond with the plasma proteins: modest
  peak plasma concentration (time to peak): ≤ 2 h
Administered by the i.m. route
  absorption: almost total
[1]
  half-life (elimination mainly by the renal route): approx. 2.5 hours
